Tests used:
Assay type in all cases: in vivo
Digitaria ciliaris = assay: Test Examples 2 and 5, Comparative Example 1: foliar spray herbicide efficacy; settings: second to third leaf stages, sprayed, 63 g/ha; for Herbicide efficacy against digitaria ciliaris: greenhouse 16 days
Protocol: Here “untreated group” represents a group where a similar treatment procedure to that of the treated group except not using the test compound is done. One point one nine (1.19) mg of the present compound was dissolved 1 mL of a DMF solution containing 2% polyoxyethylene sorbitan monolaurate, and then 18 mL of water was added thereto. The mixture was sprayed uniformly to Digitaria ciliaris in the second to third leaf stages so that the applied dose was made 63 g/ha. Thereafter, the plants were cultivated in a greenhouse for 7 days, and the herbicide efficacy was assessed. […] One point one nine (1.19) mg of the present compound was dissolved 1 mL of a DMF solution containing 2% polyoxyethylene sorbitan monolaurate, and then 18 mL of water was added thereto. The mixture was sprayed uniformly to Digitaria ciliaris in the second to third leaf stages so that the applied dose was made 63 g/ha. Thereafter, the plants were cultivated in a greenhouse for 16 days, and the herbicide efficacy was assessed. The test was conducted similarly to the method described in Test Example 5 except for using a compound represented by the following formula (A): […]

soybean = assay: Test Examples 4 and 5, Comparative Example 1: foliar spray phytotoxicity against useful plants; settings: second to third leaf stages, sprayed, 63 g/ha; for Phytotoxicity against Soybean: greenhouse 16 days
Protocol: Here “untreated group” represents a group where a similar treatment procedure to that of the treated group except not using the test compound is done. One point one nine (1.19) mg of the present compound was dissolved 1 mL of a DMF solution containing 2% polyoxyethylene sorbitan monolaurate, and then 18 mL of water was added thereto. The mixture was sprayed uniformly to soybean in the second to third leaf stages so that the applied dose was made 63 g/ha. Thereafter, the plants were cultivated in a greenhouse for 7 days, and the phytotoxicity against useful plants was assessed. […] Also, 1.19 mg of the present compound was dissolved 1 mL of a DMF solution containing 2% polyoxyethylene sorbitan monolaurate, and then 18 mL of water was added thereto. The mixture was sprayed uniformly to soybean in the second to third leaf stages so that the applied dose was made 63 g/ha. Thereafter, the plants were cultivated in a greenhouse for 16 days, and the phytotoxicity against useful plants was assessed. The test was conducted similarly to the method described in Test Example 5 except for using a compound represented by the following formula (A): […]

Echinochloa crus-galli = assay: Test Example 1: foliar spray herbicide efficacy; settings: second to third leaf stages, sprayed, 63 g/ha, greenhouse for days (number not given)
Protocol: Here “untreated group” represents a group where a similar treatment procedure to that of the treated group except not using the test compound is done. One point one nine (1.19) mg of the present compound was dissolved 1 mL of a DMF solution containing 2% polyoxyethylene sorbitan monolaurate, and then 18 mL of water was added thereto. The mixture was sprayed uniformly to Echinochloa crus-galli in the second to third leaf stages so that the applied dose was made 63 g/ha. Thereafter, the plants were cultivated in a greenhouse for days, and the herbicide efficacy was assessed.

Leptochloa chinensis = assay: Test Example 3: pot spray followed by flooding, herbicide efficacy; settings: first leaf stage, pot sprayed, 250 g/ha, flooded to 3 cm next day, greenhouse 20 days
Protocol: Here “untreated group” represents a group where a similar treatment procedure to that of the treated group except not using the test compound is done. Leptochloa chinensis seeds were seeded into a pot having a diameter of 9 cm and a death of 10 cm that was filled with steam-sterilized soil, and the plants were cultivated in a greenhouse until an emergence of the first leaf stage. Next, 4.75 mg of the present compound was dissolved into a 1 mL of DMF solution containing 2% polyoxyethylene sorbitan monolaurate, and then 18 mL of water was added thereto. The mixture was sprayed uniformly to the pot so that the applied dose was made 250 g/ha. After the pot was flooded to a depth of 3 cm on next day, the plants were cultivated in a greenhouse for 20 days, and the herbicide efficacy was assessed.

Q: What does the source list for Cn1c(C(F)(F)F)cc(=O)n(-c2cc(Oc3cccnc3OCC(=O)Oc3ccccc3)c(Cl)cc2F)c1=O [Compound (A), reference compound]?
A: Herbicide efficacy against digitaria ciliaris (Digitaria ciliaris): 10 (100% of herbicide efficacy); Phytotoxicity against Soybean (soybean): 10 (100% of phytotoxicity)

Q: How did the “score as herbicide efficacy” value (Echinochloa crus-galli) turn out when CCOC(=O)COc1ncccc1Oc1cc(NC(=O)COc2ncccc2Oc2cc(-n3c(=O)cc(C(F)(F)F)n(C)c3=O)c(F)cc2Cl)c(F)cc1Cl [Present compound] was run?
A: 9 (90% to 99% of herbicide efficacy)

Q: What about the “score as herbicide efficacy” value (Digitaria ciliaris; Digitaria ciliaris, greenhouse 7 days) of the same compound?
A: 9 (90% to 99% of herbicide efficacy)

Q: And the “Herbicide efficacy against digitaria ciliaris” value (Digitaria ciliaris)?
A: 10 (100% of herbicide efficacy)

Q: What about the “score as herbicide efficacy” value (Leptochloa chinensis) of the same compound?
A: 10 (100% of herbicide efficacy)

Q: What about the “Phytotoxicity against Soybean” value (soybean) of the same compound?
A: 1 (10% to 19% of phytotoxicity)

Q: And the score as phytotoxicity (soybean; soybean, greenhouse 7 days)?
A: 2 (20% to 29% of phytotoxicity)

From US10966427B2, “3-pyridyl oxyanilide compound and use therefor” (SUMITOMO CHEMICAL COMPANY, LIMITED, priority 2017, dated 2021)
